Columns and labels:
[1] = molecular target: T1, von Hippel-Lindau disease tumor suppressor/Androgen receptor (Homo sapiens) (UniProt P10275+P40337); test: Protac activity at VHL/AR in human LNCaP cells assessed as degradation of AR at 0.01 uM measured after 6 hrs by Western blot analysis relative to control; type: cell-based
[2] = molecular target: T1, von Hippel-Lindau disease tumor suppressor/Androgen receptor (Homo sapiens); test: Protac activity at VHL/AR in human LNCaP cells assessed as degradation of AR at 0.1 uM measured after 6 hrs by Western blot analysis relative to control; type: cell-based

T1 sequence (P10275 whole entry, looked up): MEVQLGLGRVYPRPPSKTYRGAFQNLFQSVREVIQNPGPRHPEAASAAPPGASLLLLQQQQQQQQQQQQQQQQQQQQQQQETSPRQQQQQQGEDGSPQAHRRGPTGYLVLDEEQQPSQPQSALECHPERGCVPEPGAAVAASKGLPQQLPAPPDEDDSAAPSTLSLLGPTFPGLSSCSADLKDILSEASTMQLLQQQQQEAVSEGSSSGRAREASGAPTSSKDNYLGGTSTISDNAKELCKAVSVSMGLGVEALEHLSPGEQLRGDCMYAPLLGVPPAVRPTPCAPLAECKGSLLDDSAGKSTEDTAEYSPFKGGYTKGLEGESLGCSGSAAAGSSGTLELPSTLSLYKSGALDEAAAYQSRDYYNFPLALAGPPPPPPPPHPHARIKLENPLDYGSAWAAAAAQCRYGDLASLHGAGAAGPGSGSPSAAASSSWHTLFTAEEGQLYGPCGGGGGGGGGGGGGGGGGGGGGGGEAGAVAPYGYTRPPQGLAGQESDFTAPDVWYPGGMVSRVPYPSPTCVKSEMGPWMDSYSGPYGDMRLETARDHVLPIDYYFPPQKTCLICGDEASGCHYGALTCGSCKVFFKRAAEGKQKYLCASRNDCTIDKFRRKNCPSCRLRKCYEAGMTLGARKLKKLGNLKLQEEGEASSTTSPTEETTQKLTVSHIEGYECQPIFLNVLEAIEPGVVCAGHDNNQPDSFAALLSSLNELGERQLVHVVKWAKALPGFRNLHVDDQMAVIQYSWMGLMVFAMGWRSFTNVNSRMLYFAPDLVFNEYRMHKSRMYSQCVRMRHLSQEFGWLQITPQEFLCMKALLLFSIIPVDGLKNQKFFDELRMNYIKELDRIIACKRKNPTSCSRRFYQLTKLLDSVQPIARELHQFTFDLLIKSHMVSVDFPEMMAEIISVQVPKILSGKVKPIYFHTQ
T1 sequence (P40337 whole entry, looked up): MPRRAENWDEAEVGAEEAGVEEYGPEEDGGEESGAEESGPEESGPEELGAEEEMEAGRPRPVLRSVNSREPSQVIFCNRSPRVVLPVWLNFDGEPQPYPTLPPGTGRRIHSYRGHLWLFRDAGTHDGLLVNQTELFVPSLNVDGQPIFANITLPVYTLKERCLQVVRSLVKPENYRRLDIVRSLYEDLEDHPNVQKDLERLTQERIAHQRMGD

SMILES | Activity [1] [%] | Activity [2] [%]
CC(=O)N[C@H](C(=O)N1C[C@H](O)C[C@H]1C(=O)N[C@@H](CC(=O)N1CCC(N2CCC(C#Cc3ccc(C(=O)N[C@H]4C(C)(C)[C@H](Oc5ccc(C#N)c(Cl)c5)C4(C)C)cc3)CC2)CC1)c1ccc(-c2scnc2C)cc1)C(C)(C)C | 39 | 77
Cc1cc([C@H](C(=O)N2C[C@H](O)C[C@H]2C(=O)N[C@@H](CC(=O)N2CCC(N3CCC(C#Cc4ccc(C(=O)N[C@H]5C(C)(C)[C@H](Oc6ccc(C#N)c(Cl)c6)C5(C)C)cc4)CC3)CC2)c2ccc(-c3scnc3C)cc2)C(C)C)on1 | 76 | 98
Cc1cc([C@H](C(=O)N2C[C@H](O)C[C@H]2C(=O)N[C@@H](CC(=O)N2CCC(N3CCC(C#Cc4ccc(Cc5c(C)nn(-c6ccc(C#N)c(Cl)c6)c5C)cc4)CC3)CC2)c2ccc(-c3scnc3C)cc2)C(C)C)on1 |  | 65
Cc1ncsc1-c1ccc([C@H](CC(=O)N2CCC(N3CCC(C#Cc4ccc(C(=O)N[C@H]5C(C)(C)[C@H](Oc6ccc(C#N)c(Cl)c6)C5(C)C)cc4)CC3)CC2)NC(=O)[C@@H]2C[C@@H](O)CN2C(=O)[C@@H](NC(=O)C2(F)CC2)C(C)(C)C)cc1 | 89 | 99
Cc1cc([C@H](C(=O)N2C[C@H](O)C[C@H]2C(=O)N[C@@H](CC(=O)NN2CCC(N3CCC(C#Cc4ccc(N5C(=S)N(c6ccc(C#N)c(C(F)(F)F)c6)C(=O)C5(C)C)cc4)CC3)CC2)c2ccc(-c3scnc3C)cc2)C(C)C)on1 | 20 | 81

Results, then the compound that gave them:

Activity [1] [%] | Activity [2] [%] | SMILES
76 | 99 | Cc1ncsc1-c1ccc([C@H](CC(=O)N2CCC(N3CCC(C#Cc4ccc(C(=O)N[C@H]5C(C)(C)[C@H](Oc6ccc(C#N)c(Cl)c6)C5(C)C)cc4)CC3)CC2)NC(=O)[C@@H]2C[C@@H](O)CN2C(=O)[C@@H](NC(=O)C2(C#N)CC2)C(C)(C)C)cc1
 | 2 | CC1(C)[C@H](NC(=O)c2ccc(C#CC3CCN(C4CCN(c5cccc6c5C(=O)N(C5CCC(=O)NC5=O)C6=O)CC4)CC3)cc2)C(C)(C)[C@H]1Oc1ccc(C#N)c(Cl)c1 (some centres undefined)
38 | 80 | Cc1cc([C@H](C(=O)N2C[C@H](O)C[C@H]2C(=O)N[C@@H](CC(=O)NN2CCC(N3CCC(C#Cc4ccc(N5C(=S)N(c6cnc(C#N)c(C(F)(F)F)c6)C(=O)C56CCC6)cc4)CC3)CC2)c2ccc(-c3scnc3C)cc2)C(C)C)on1

Reference: ChEMBL document CHEMBL4680362, “Androgen Receptor Protein Degradation in the Treatment of Castration-Resistant Prostate Cancer” (ACS Med Chem Lett, 2021)
